Results: PubChem BioAssay (NCI)
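All cell lines were grown in 96-well plates and treated with compound for 48 hours. GI50 = concentration required for 50% inhibition of growth. TGI is the concentration that stops growth completely.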

Experiments:
Test in all cases: growth of human tumour cells (NCI), 48 h
[1] = tested on: U251 CNS
[2] = tested on: OVCAR-3 ovarian
[3] = tested on: UACC-62 melanoma
[4] = tested on: KM12 colon
[5] = tested on: SF-295 CNS
[6] = tested on: HS 578T breast
[7] = tested on: HCT-15 colon
[8] = tested on: NCI-H522 lung
[9] = tested on: MOLT-4 leukemia
[10] = tested on: UO-31 renal
[11] = tested on: HOP-62 NSCLC
[12] = tested on: OVCAR-8 ovarian
[13] = tested on: LOX IMVI melanoma
[14] = tested on: 786-0 renal
[15] = tested on: T-47D breast
[16] = tested on: IGROV1 ovarian
[17] = tested on: SR leukemia
[18] = tested on: SF-268 CNS
[19] = tested on: K-562 leukemia
[20] = tested on: CAKI-1 renal
[21] = tested on: NCI-H460 lung
[22] = tested on: NCI-H226 lung
[23] = tested on: RXF 393 renal
[24] = tested on: RPMI-8226 leukemia
[25] = tested on: SNB-19 CNS
[26] = tested on: OVCAR-5 ovarian
[27] = tested on: NCI-H23 lung
[28] = tested on: SN12C renal
[29] = tested on: MALME-3M melanoma
[30] = tested on: ACHN renal
[31] = tested on: HOP-92 NSCLC
[32] = tested on: MCF7 breast
[33] = tested on: DU-145 prostate
[34] = tested on: COLO 205 colon
[35] = tested on: M14 melanoma
[36] = tested on: HCT-116 colon
[37] = tested on: OVCAR-4 ovarian
[38] = tested on: HCC-2998 colon
[39] = tested on: SK-MEL-28 melanoma
[40] = tested on: A498 renal
[41] = tested on: PC-3 prostate
[42] = tested on: SK-OV-3 ovarian
[43] = tested on: CCRF-CEM leukemia
[44] = tested on: MDA-MB-435
[45] = tested on: NCI/ADR-RES ovarian
[46] = tested on: TK-10 renal
[47] = tested on: SK-MEL-2 melanoma
[48] = tested on: SK-MEL-5 melanoma
[49] = tested on: A549 NSCLC
[50] = tested on: HT29 colon
[51] = tested on: SNB-75 CNS
[52] = tested on: MDA-MB-231 breast
[53] = tested on: SW-620 colon
[54] = tested on: EKVX NSCLC
[55] = tested on: UACC-257 melanoma

Question: With C=C(C)C1/C=C(/C(C)C)CC[C@]2(C)O[C@@H]2CC[C@H](C)CC1=O (stereo partly drawn) as the compound, how does the GI50 [1] read?
Answer: 54.7 µM

Question: And the TGI [1]?
Answer: > 100 µM

Question: And the GI50 [2]?
Answer: 25.4 µM

Question: What about the TGI [2] of the same compound?
Answer: 81.1 µM

Question: What about the GI50 [3] of the same compound?
Answer: 80.2 µM

Question: And the TGI [3]?
Answer: > 100 µM

Question: And the GI50 [4]?
Answer: 58.1 µM

Question: And the TGI [4]?
Answer: > 100 µM

Question: What about the GI50 [5] of the same compound?
Answer: 71.4 µM

Question: What about the TGI [5] of the same compound?
Answer: > 100 µM

Question: And the GI50 [6]?
Answer: 31.7 µM

Question: What about the TGI [6] of the same compound?
Answer: > 100 µM

Question: What about the GI50 [7] of the same compound?
Answer: > 100 µM

Question: What about the TGI [7] of the same compound?
Answer: > 100 µM

Question: And the GI50 [8]?
Answer: > 100 µM

Question: What about the TGI [8] of the same compound?
Answer: > 100 µM

Question: And the GI50 [9]?
Answer: > 100 µM

Question: What about the TGI [9] of the same compound?
Answer: > 100 µM

Question: What about the GI50 [10] of the same compound?
Answer: 28.6 µM

Question: And the TGI [10]?
Answer: 98.1 µM

Question: And the GI50 [11]?
Answer: 76 µM

Question: What about the TGI [11] of the same compound?
Answer: > 100 µM

Question: And the GI50 [12]?
Answer: 58.3 µM

Question: What about the TGI [12] of the same compound?
Answer: > 100 µM

Question: And the GI50 [13]?
Answer: 23.3 µM

Question: And the TGI [13]?
Answer: 57.6 µM

Question: What about the GI50 [14] of the same compound?
Answer: 32.4 µM

Question: And the TGI [14]?
Answer: > 100 µM

Question: And the GI50 [15]?
Answer: 76.7 µM

Question: What about the TGI [15] of the same compound?
Answer: > 100 µM

Question: What about the GI50 [16] of the same compound?
Answer: 77.8 µM

Question: And the TGI [16]?
Answer: > 100 µM

Question: And the GI50 [17]?
Answer: 19.2 µM

Question: And the TGI [17]?
Answer: 58.5 µM

Question: And the GI50 [18]?
Answer: > 100 µM

Question: What about the TGI [18] of the same compound?
Answer: > 100 µM

Question: And the GI50 [19]?
Answer: 33 µM

Question: What about the TGI [19] of the same compound?
Answer: > 100 µM

Question: And the GI50 [20]?
Answer: 35.3 µM

Question: What about the TGI [20] of the same compound?
Answer: > 100 µM

Question: And the GI50 [21]?
Answer: 50.3 µM

Question: What about the TGI [21] of the same compound?
Answer: > 100 µM

Question: What about the GI50 [22] of the same compound?
Answer: > 100 µM

Question: And the TGI [22]?
Answer: > 100 µM

Question: And the GI50 [23]?
Answer: 32 µM

Question: And the TGI [23]?
Answer: > 100 µM

Question: And the GI50 [24]?
Answer: 15.5 µM

Question: What about the TGI [24] of the same compound?
Answer: 34.4 µM

Question: What about the GI50 [25] of the same compound?
Answer: > 100 µM

Question: And the TGI [25]?
Answer: > 100 µM

Question: And the GI50 [26]?
Answer: > 100 µM

Question: And the TGI [26]?
Answer: > 100 µM

Question: What about the GI50 [27] of the same compound?
Answer: 87 µM

Question: And the TGI [27]?
Answer: > 100 µM

Question: What about the GI50 [28] of the same compound?
Answer: > 100 µM

Question: What about the TGI [28] of the same compound?
Answer: > 100 µM

Question: And the GI50 [29]?
Answer: 36.1 µM

Question: And the TGI [29]?
Answer: > 100 µM

Question: And the GI50 [30]?
Answer: 72.4 µM

Question: What about the TGI [30] of the same compound?
Answer: > 100 µM

Question: And the GI50 [31]?
Answer: 99.5 µM

Question: What about the TGI [31] of the same compound?
Answer: > 100 µM

Question: And the GI50 [32]?
Answer: 50.7 µM

Question: What about the TGI [32] of the same compound?
Answer: > 100 µM

Question: What about the GI50 [33] of the same compound?
Answer: 49.6 µM

Question: What about the TGI [33] of the same compound?
Answer: > 100 µM

Question: What about the GI50 [34] of the same compound?
Answer: 54.5 µM

Question: And the TGI [34]?
Answer: > 100 µM

Question: And the GI50 [35]?
Answer: 49.6 µM

Question: And the TGI [35]?
Answer: > 100 µM

Question: What about the GI50 [36] of the same compound?
Answer: 17.7 µM

Question: And the TGI [36]?
Answer: 42.2 µM

Question: And the GI50 [37]?
Answer: 72.4 µM

Question: And the TGI [37]?
Answer: > 100 µM

Question: And the GI50 [38]?
Answer: 99.9 µM

Question: What about the TGI [38] of the same compound?
Answer: > 100 µM

Question: What about the GI50 [39] of the same compound?
Answer: > 100 µM

Question: And the TGI [39]?
Answer: > 100 µM

Question: And the GI50 [40]?
Answer: 83.4 µM

Question: What about the TGI [40] of the same compound?
Answer: > 100 µM

Question: And the GI50 [41]?
Answer: 32.4 µM

Question: And the TGI [41]?
Answer: > 100 µM

Question: And the GI50 [42]?
Answer: > 100 µM

Question: And the TGI [42]?
Answer: > 100 µM

Question: What about the GI50 [43] of the same compound?
Answer: 18.5 µM

Question: And the TGI [43]?
Answer: 37.3 µM

Question: What about the GI50 [44] of the same compound?
Answer: 39 µM

Question: And the TGI [44]?
Answer: > 100 µM

Question: What about the GI50 [45] of the same compound?
Answer: 87.4 µM

Question: What about the TGI [45] of the same compound?
Answer: > 100 µM

Question: What about the GI50 [46] of the same compound?
Answer: 66.6 µM

Question: And the TGI [46]?
Answer: > 100 µM

Question: What about the GI50 [47] of the same compound?
Answer: > 100 µM

Question: What about the TGI [47] of the same compound?
Answer: > 100 µM

Question: What about the GI50 [48] of the same compound?
Answer: 55 µM

Question: And the TGI [48]?
Answer: > 100 µM

Question: What about the GI50 [49] of the same compound?
Answer: 48.5 µM

Question: And the TGI [49]?
Answer: > 100 µM

Question: For Cc1ccc2c(O)c3c(cc2c1)C(=O)c1c2c(cc(O)c1C3=O)C1(C)OC(O2)C(O)C(N(C)C)C1O (stereo not drawn), which TGI [2] is on record?
Answer: 1.59 µM

Question: What about the TGI [4] of the same compound?
Answer: 2.77 µM

Question: And the TGI [7]?
Answer: 2.44 µM

Question: What about the TGI [14] of the same compound?
Answer: 1.6 µM

Question: And the TGI [18]?
Answer: 81 µM

Question: What about the TGI [19] of the same compound?
Answer: 0.442 µM

Question: What about the TGI [26] of the same compound?
Answer: 3.73 µM

Question: And the TGI [30]?
Answer: 1.88 µM

Question: What about the TGI [31] of the same compound?
Answer: 2.22 µM

Question: And the TGI [33]?
Answer: 2.23 µM

Question: What about the TGI [34] of the same compound?
Answer: 1.91 µM

Question: What about the TGI [38] of the same compound?
Answer: 2.34 µM

Question: And the TGI [40]?
Answer: 2.37 µM

Question: What about the TGI [45] of the same compound?
Answer: 2.42 µM

Question: What about the TGI [46] of the same compound?
Answer: 3.1 µM

Question: CC(=O)OCC(=O)[C@@]1(O)CC[C@H]2[C@@H]3CCC4=CC(=O)C=C[C@]4(C)[C@@]3(F)[C@@H](O)C[C@@]21C was tested. Which TGI [41] did it give?
Answer: > 100 µM

Question: Which TGI [2] does the source give for c1ccc2c3nnc(c2c1)SCCSCCSc1nnc(c2ccccc12)SCCSCCS3 here?
Answer: > 100 µM

Question: What about the TGI [3] of the same compound?
Answer: > 100 µM

Question: And the TGI [5]?
Answer: > 100 µM

Question: And the TGI [6]?
Answer: > 100 µM

Question: What about the TGI [7] of the same compound?
Answer: > 100 µM

Question: And the TGI [8]?
Answer: > 100 µM

Question: And the TGI [50]?
Answer: > 100 µM

Question: And the TGI [51]?
Answer: > 100 µM

Question: And the TGI [9]?
Answer: > 100 µM

Question: What about the TGI [52] of the same compound?
Answer: > 100 µM

Question: And the TGI [11]?
Answer: > 100 µM

Question: What about the TGI [12] of the same compound?
Answer: > 100 µM

Question: And the TGI [13]?
Answer: > 100 µM

Question: What about the TGI [15] of the same compound?
Answer: > 100 µM

Question: What about the TGI [16] of the same compound?
Answer: > 100 µM

Question: And the TGI [17]?
Answer: > 100 µM

Question: What about the TGI [18] of the same compound?
Answer: > 100 µM

Question: What about the TGI [21] of the same compound?
Answer: > 100 µM

Question: What about the TGI [28] of the same compound?
Answer: > 100 µM

Question: And the TGI [29]?
Answer: > 100 µM

Question: And the TGI [30]?
Answer: > 100 µM

Question: And the TGI [31]?
Answer: > 100 µM

Question: And the TGI [34]?
Answer: > 100 µM

Question: What about the TGI [35] of the same compound?
Answer: > 100 µM

Question: And the TGI [37]?
Answer: > 100 µM

Question: And the TGI [41]?
Answer: > 100 µM

Question: What about the TGI [42] of the same compound?
Answer: > 100 µM

Question: And the TGI [53]?
Answer: > 100 µM

Question: What about the TGI [54] of the same compound?
Answer: > 100 µM

Question: And the TGI [45]?
Answer: > 100 µM

Question: What about the TGI [47] of the same compound?
Answer: > 100 µM

Question: What about the TGI [48] of the same compound?
Answer: > 100 µM

Question: And the TGI [49]?
Answer: > 100 µM

Question: What about the TGI [55] of the same compound?
Answer: > 100 µM
